Test results reported in US12285392B2, “Method for modulating metabolism” (Brightseed, Inc., priority 2018, dated 2025).

Legend:
pH stability assessment = assay type: physicochemical; conditions: pH 2, 7.4, 8.5 and 10, 37° C., 0.5 and 72 hours
Description: pH Stability Assessment. Individual stock solutions were prepared in DMSO at concentrations of 10 mg/mL. Four different buffer solutions were prepared to achieve solutions with a pH of 2, 7.4, 8.5 and 10. For each pH assay, 5 μL of stock solution was added to 245 μL of buffered solution to a 2 mL tube, vortexed and incubated in a 37° C. water bath. At each timepoint, 50 μL aliquots were taken, neutralized and analyzed via HPLC analysis using a DAD detector at 280 nm. The fold change of the peak area at 280 nm was analyzed for the initial and final timepoint, 0.5 and 72 hours, respectively.

diet-induced obese mice = assay: Efficacy and tolerability in diet-induced obese mice; assay type: in vivo
Description: Alkaline Phosphatase (ALP) Quantitation. Increased levels of ALP in blood are considered indicative of liver function abnormalities. Thus, ALP was assayed in accordance with known methods (Kiselyuk, et al. (2012) Chem. Biol. 19(7):806-818). Briefly, prior to sacrifice, blood was drawn and analyzed using a Vet Scan blood analyzer, measuring alkaline phosphatase (ALP, IU/L), alanine aminotransferase (ALT, IU/L), gamma glutamyl transferase (GGT, IU/L), bile acids (BA, μmol/L), total bilirubin (TBIL, mg/dL), albumin (ALB, g/dL), blood urea nitrogen (BUN, mg/dL), and cholesterol (CHOL, mg/dL).
Triglyceride (TG) Quantitation. TG quantity was assayed using a Triglyceride Colorimetric Assay Kit (Cayman Chemicals; Ann Arbor, MI) according to the manufacturer's instructions.
Lipid Droplet Size Analysis. All slides were scanned at a magnification of 20× using the Aperio Scanscope FL system (Aperio Technologies Inc.; Vista, CA). The appropriate dyes were assigned and illumination levels were calibrated using a preset procedure; the parameters were saved and applied to all slides. The acquired digital images represented whole tissue sections. Sections were evaluated for image quality. All acquired images were subsequently placed in dedicated project folders, and stored on a designated local server. Selected areas of the slides were selected using Aperio Imagescope (version 12 Aperio Technologies Inc.). For analysis, slides were viewed, whole tissue areas were selected and analyzed using the web-based Image Scope viewer. Slides were quantified using the ‘Color Deconvolution v9’ algorithm for oil redo staining (version 11 Aperio Technologies Inc.). The algorithm was optimized using a preset procedure to maximize the strong red color positive oil droplets signal to noise ratio and the subsequent macro was saved and applied to all slides.
HNF4α Immunostaining in Organ Samples. Samples were harvested from mice, fixed in 4% paraformaldehyde and embedded in paraffin or O.C.T. freezing media (Sakura Finetek; Torrance, CA) Slides of 5 μm thickness were washed four times with PBS and treated with 0.3% Triton™ in PBS for 10 minutes. Antigen retrieval was carried out with CitriSolv™ (Fisher Scientific; Waltham, MA) for 10 minutes in sub-boiling temperature. After washing with PBS for 10 minutes, slides were incubated in blocking solution with 5% normal donkey serum (Jackson Immuno Research; West Grove, PA) for 60 minutes at room temperature. Cells were fixed in 4% paraformaldehyde for 15 minutes on 4° C. and washed with PBS, treated with 0.3% Triton™ in PBS for 10 minutes and blocked as previously described for slide samples.
Primary Antibodies. HNF4α antibodies were used (#sc-6556, Santa Cruz Biotechnology; Santa Cruz, CA and #3113, Cell Signaling Technology; Danvers, MA). For fluorescent imaging, samples were incubated with ALEXA FLOUR® 488 green-fluorescent dye or Rhodamine labeled anti-mouse, rabbit or goat and nuclei were counterstained with DAPI (4′,6-diamidino-2-phenylindole) Controls using secondary antibodies alone were used to ensure specificity of immunostaining. Fluorescently labeled sections were analyzed with a conventional inverted microscope (Olympus, PlanFl 40×/0.60) or with a confocal microscope equipped with a krypton/argon laser.
The experiments were performed to establish feeding and treatment regimen, dosing and administration regimens, as well as to provide evidence of beneficial effects of N-trans-caffeoyltyramine on glucose and lipid homeostasis, hepatic steatosis, β-cell function and hepatocyte function. Twelve mice (10 weeks old) were fed a high-fat diet for four weeks to induce obesity. After four weeks, and while on the high-fat diet, six mice were administered 5% DMSO or 120 mg/kg N-trans-caffeoyltyramine twice a day intraperitoneally for 14 days. One hour after the last i.p. injection of DMSO or N-trans-caffeoyl tyramine, the animals were sacrificed and blood and organ (liver, kidney, gut and pancreas) samples were collected. […]

T6PNE cells = assay: Lipid clearance in T6PNE cells (steatosis assay); assay type: cell-based
Description: T6PNE cells were pretreated for 1 day with 0.06 mM, 0.12 mM or 0.25 mM palmitate at which time 15 μM N-trans-caffeoyltyramine or control (DMSO) was added. Cells were harvested on day 3, 6 and 8 and subjected to staining with Nile Red and Oil Red O. Results are expressed as fold change in Nile Red staining: +palmitate/10% FBS medium (no palmitate)
Lipid Clearance in HepG2 and T6PNE Cells (Steatosis Assay). The steatosis assay was carried out as described (Kiselyuk, et al. (2012) Chem. Biol. 19(7):806-818) with the exception of the drug concentration, which was 20 μM for N-trans-caffeoyltyramine with 0.25 mM palmitate in HepG2 cell lines, and 10 μM of either N-trans-caffeoyltyramine, N-trans-caffeoyltyramine, or pcoumaroyltyramine, with 0.25 mM palmitate in T6PNE cell lines. Steatosis was assessed using the Oil Red 0 Method for Fats kits (Poly Scientific; Warrington, PA), per manufacturer's guidelines. Briefly, frozen tissue slides or fixed cells were incubated in neat propylene glycol for 2 minutes and Oil Red 0 solution for 15 hours for slides or 1 hour for fixed cells, differentiated in 85% propylene glycol solution for 1 minute, washed twice with distilled water and stained in Hematoxylin of 10 seconds. Slides were mounted with glycerin jelly mounting medium.

Question: For O=C(/C=C/c1ccc(O)c(O)c1)NCCc1ccc(O)cc1 [N-trans-caffeoyltyramine], which “pH Stability” value (pH stability assessment) is on record?
Answer: Acid Stable

Question: And the “Lipid accumulation in the liver” value (diet-induced obese mice; 120 mg/kg twice a day i.p. for 14 days)?
Answer: decreased

Question: What about the “Weight loss, sickness or abnormal behaviors compared to control” value (diet-induced obese mice; 120 mg/kg twice a day i.p. for 14 days, high-fat diet mice) of the same compound?
Answer: None of the treated mice exhibited weight loss, sickness, or abnormal behaviors

Question: What about the “Lipid droplet sizes in the liver” value (diet-induced obese mice; 120 mg/kg twice a day i.p. for 14 days, FIG. 8) of the same compound?
Answer: reduced

Question: And the “HNF4α expression in the liver” value (diet-induced obese mice; 120 mg/kg twice a day i.p. for 14 days, P=0.0042, FIG. 7)?
Answer: significantly increased

Question: And the “HNF4α expression in intestines” value (diet-induced obese mice; FIG. 12)?
Answer: increased

Question: What about the “Levels of alkaline phosphatase” value (diet-induced obese mice; blood, 120 mg/kg twice a day i.p. for 14 days, FIG. 9) of the same compound?
Answer: significantly reduced

Question: What about the “HNF4α expression in the pancreas” value (diet-induced obese mice; compared to DMSO control mice, FIG. 11) of the same compound?
Answer: increased

Question: What about the Levels of triglycerides (diet-induced obese mice; liver, 120 mg/kg twice a day i.p. for 14 days, FIG. 10) of the same compound?
Answer: significantly reduced

Question: And the Fat accumulation (T6PNE cells; 10 μM, 0.25 mM palmitate)?
Answer: inhibition of fat accumulation

Question: What about the “Lipid accumulation when palmitate was added prior to compound” value (T6PNE cells; FIG. 6, 15 μM) of the same compound?
Answer: reduced lipid accumulation
